Paper PMC12292791, “Insights into Membrane Damage by α-Helical and β-Sheet Peptides” (Biomolecules, 2025)
Each block holds one compound with its values, some of them ahead of it. Peptide text beside a SMILES is read from it.

What was measured:
[1] = ANTS/DPX dye leakage assay with large unilamellar vesicles; format: biochemical; conditions: 500 µM lipid
Procedure: Large unilamellar vesicles were prepared using a modified procedure from Wimley. Individual solutions of 1-palmitoyl-2-oleoyl-glycero-3-phosphocholine (POPC) and 1-palmitoyl-2-oleoyl-sn-glycero-3-phospho-(1’-rac-glycerol) (sodium salt) (POPG) lipids (Avanti Research, Alabaster, AL, USA) in chloroform were mixed in a 7:3 mol/mol POPC–POPG ratio, and the chloroform was gently evaporated under a stream of nitrogen gas. The lipid film was then dried in vacuo overnight. After complete evaporation of the chloroform, the lipid film was resuspended in the vesicle preparation buffer to yield a 25 mM lipid solution. The vesicle preparation buffer consisted of 45 mM KCl, 10 mM Tris HCl, 8 mM 8-aminonaphthalene-1,3,6-trisulfonic acid disodium salt (ANTS) (Fisher Scientific Inc., Waltham, MA, USA), and 32 mM p-xylene-bis-pyridinium bromide (DPX) (Fisher Scientific, Inc.). The lipid film was allowed to dissolve in the vesicle preparation buffer for approximately 15 min. If any lipid film remained on the side of the tube, the solution was gently pipetted up and down to mix the film with the liposome suspension. Once the film was thoroughly dissolved, the lipid suspension was subjected to 10 freeze/thaw cycles using a dry ice/ethanol bath and a 60 °C water bath to facilitate encapsulation of the fluorophore and quencher pair (ANTS and DPX). […]
Lyophilized peptide was dissolved in the liposome elution buffer at a volume corresponding to half the total volume needed for the experiment. The liposome solution was diluted to 1 mM lipid from the concentration calculated using the phosphorus concentration method described above. […]
Fluorescence measurements were conducted on a Tecan Spark® 20M plate reader (Tecan, Männedorf, Zurich, Switzerland). […] The wells were excited at 355 nm with a bandwidth of 5 nm, and emission was monitored at a wavelength of 520 nm with a bandwidth of 10 nm. The gain and z-position were calculated using a well containing liposomes lysed with reduced Triton^TM X-100 (Sigma-Aldrich) to produce maximum fluorescence. […]
To ensure accurate comparison across batches of liposomes, the percentage leakage was calculated using the formula: PercentLeakage=F−F0/Flysed−F0×100 where F is the relative fluorescence (RF) at time t, F0 is the RF at t=0 , and Flysed is the RF after the addition of detergent. Since leakage occurred immediately upon mixing the liposome and peptide solutions, the initial fluorescence ( F0 ) was determined by adding the relative fluorescence of liposomes alone to the relative fluorescence of the peptide in the elution buffer at each relevant concentration. […] Leakage experiments were performed at least in triplicate, and error bars were calculated as the standard deviation about the mean. […]

[2] = Solubility in liquid elution buffer observed during CD measurements; format: physicochemical; conditions: liposome elution buffer (75 mM KCl, 20 mM Tris HCl), lyophilized peptide dissolved, 25 °C CD samples
Procedure: Circular dichroism (CD) spectra were recorded using a Jasco-815 circular dichroism spectrometer with a 0.1 mm path-length quartz cuvette. Scans were performed at 25 °C in duplicate, covering the wavelength range of 190–260 nm. The scanning parameters included a 1.0 nm data pitch, 1.0 nm bandwidth, and a scanning speed of 100 nm/min.
Additionally, the spectra recorded in the presence of the LUVs differed from those recorded in buffer alone. […] At peptide concentrations higher than 500 µM, M03 began to lose solubility, while M04 began to precipitate from solution at concentrations higher than 200 µM. The reduced solubility of M04 was likely due to the orientation of all its hydrophobic residues on one face of the α -helix, making it more prone to aggregation in aqueous solutions. […] It is also important to note that the CD spectra of M03 and M04 were noticeably different from each other. This underscores the effect that varying the sequence pattern, even slightly, can have on the resulting peptide properties.

[3] = immediately upon dissolution in aqueous solvent; cited from earlier work
Source text: In the following section, we discuss the secondary structure and membrane damage properties of M03 and M04. […] This happened immediately upon dissolution in aqueous solvent; likely before it was able to interact with the membranes. Therefore, it was difficult to determine the effect of M01 peptides on membranes experimentally, as the leakage observed was likely due to mechanical disruption of the liposomes as the peptide monomers assembled ...

Compound: CC(=O)N[C@@H](Cc1ccccc1)C(=O)N[C@@H](Cc1ccccc1)C(=O)N[C@@H](CCCCN)C(=O)N[C@@H](CCCCN)C(=O)N[C@@H](Cc1ccccc1)C(=O)N[C@@H](Cc1ccccc1)C(=O)N[C@@H](CCC(=O)O)C(=O)N[C@@H](CCC(=O)O)C(N)=O [Peptide M02, Ac-FFKKFFEE-NH2] (Ac-FFKKFFEE-NH2)
leakage ([1]; peptide 100 µM, 500 µM and 1 mM (P:L 1:5, 1:1, 2:1), 7:3 POPC–POPG LUVs, ANTS/DPX): minimal leakage

peptide concentration above which the peptide begins to lose solubility / precipitate [2]: higher than 500 µM
Compound: CC(=O)N[C@@H](Cc1ccccc1)C(=O)N[C@@H](Cc1ccccc1)C(=O)N[C@@H](CCCCN)C(=O)N[C@@H](CCCCN)C(=O)N[C@@H](Cc1ccccc1)C(=O)N[C@@H](Cc1ccccc1)C(=O)N[C@@H](CCC(=O)O)C(=O)N[C@@H](CCC(=O)O)C(=O)N[C@@H](Cc1ccccc1)C(=O)N[C@@H](Cc1ccccc1)C(=O)N[C@@H](CCCCN)C(=O)N[C@@H](CCCCN)C(=O)N[C@@H](Cc1ccccc1)C(=O)N[C@@H](Cc1ccccc1)C(=O)N[C@@H](CCC(=O)O)C(=O)N[C@@H](CCC(=O)O)C(N)=O [Peptide M03, Ac-(FFKKFFEE)2-NH2] (Ac-FFKKFFEEFFKKFFEE-NH2)
percentage of leakage ([1]; all P:L ratios tested (1:50, 2:50, 1:10, 1:5, 2:5), ANTS/DPX in 7:3 POPC–POPG LUVs, 75 mM KCl/20 mM Tris HCl, room temperature, fluorescence ex 355/em 520 nm, at least triplicate): greater than 80%

peptide concentration above which the peptide begins to lose solubility / precipitate [2]: higher than 200 µM
Compound: CC(=O)N[C@@H](Cc1ccccc1)C(=O)N[C@@H](Cc1ccccc1)C(=O)N[C@@H](CCCCN)C(=O)N[C@@H](CCCCN)C(=O)N[C@@H](Cc1ccccc1)C(=O)N[C@@H](Cc1ccccc1)C(=O)N[C@@H](CCC(=O)O)C(=O)N[C@@H](CCC(=O)O)C(=O)N[C@@H](Cc1ccccc1)C(=O)N[C@@H](CCCCN)C(=O)N[C@@H](CCCCN)C(=O)N[C@@H](Cc1ccccc1)C(=O)N[C@@H](Cc1ccccc1)C(=O)N[C@@H](CCC(=O)O)C(=O)N[C@@H](CCC(=O)O)C(=O)N[C@@H](Cc1ccccc1)C(N)=O [Peptide M04, Ac-FFKKFFEEFKKFFEEF-NH2] (Ac-FFKKFFEEFKKFFEEF-NH2)
percentage of leakage ([1]; P:L 1:50 (lowest ratio), ANTS/DPX in 7:3 POPC–POPG LUVs, 75 mM KCl/20 mM Tris HCl, fluorescence, at least triplicate): no leakage
percentage of leakage (damage) ([1]; P:L 2:50, ANTS/DPX in 7:3 POPC–POPG LUVs, 75 mM KCl/20 mM Tris HCl, fluorescence, at least triplicate): 21%

Compound: Ac-FKFEFKFE-NH2 [Peptide M01, 8-residue amphipathic β-sheet forming peptide]
self-assembly / aggregation [3]: self-assembled into supramolecular β -sheet rich fibers
